Laboratory results reported in patent US7008954B1, “Th2 differentiation inhibitors” (Shionogi & Co., Ltd., priority 1999, dated 2006).

Tests used:
[1] = test system: differentiation from Th0 cells to Th2 cells; assay: Inhibitory effect on induction of differentiation from Th0 cells to Th2 cells (DNP-As immunized mice, popliteal lymph node, intracellular cytokine FACS); format: in vivo, BALB/c mice; settings: for increase in the % Th2 / increase in the Th2/Th1 ratio: BALB/c mice immunized with DNP-As; for % Th1 / % Th2 / Th2/Th1: BALB/c mice immunized with DNP-As/Alum, popliteal lymph node 6 days after immunization, n = 3
Method: Experiment 1 Inhibitory Effect on Induction of Differentiation from Th0 Cells to Th2 Cells
In an experiment to induce the differentiation from Th0 cells to Th2 cells, 9 to 11 week-old female mice of BALB/cCrSlc purchased from Japan SLC, Inc. or of BALB/cAnNCrj purchased from Charles River Japan, Inc. were used.
In an experiment to induce the differentiation from Th0 cells to Th2 cells, a DNP-As (dinitrophenylated Ascaris protein (porcine ascarid extract protein)) was used as an antigen, 10 μg of which and 250 μg of Alum (aluminum hydroxide adjuvant) in physiological saline in the final volume of 50 μl was injected into the soles of the both hind legs of each mouse, whereby effecting immunization. In a negative control group, each animal was treated similarly by an injection of 50 μl of physiological saline. 6 Days after injection, two popliteal lymph nodes were removed from right and left knees, and passed through a metal mesh (200 mesh size) in Hanks' balanced salt solution (HBSS) to prepare a cell suspension. In the group treated with physiological saline, preparations from two animals were combined and subjected to the experiment because of a small cell number. A compound according to the invention was suspended in 0.5% methylcellulose (MC) and 0.1 ml per 20 g mouse was given orally every day over a period from the day of immunization through the 5th day. The immunized vehicle control group and the negative control group were treated with the same volume of 0.5% MC.
Cells prepared from popliteal lymph nodes of these mice were suspended at 1−2×10^6 cells/ml (1–2 ml) in an RPMI 1640 medium (containing 10% fetal bovine serum—FBS and 50 μM 2-mercaptoethanol) and supplemented with PMA (Phorbol 12-Myristate 13-Acetate) at the final concentration of 50 ng/ml and 250 ng/ml A23187 (Ca ionophore) and then incubated at 37° C. in the presence of 5% CO2. After incubating for 4 hours, Brefeldin A was added at the final concentration of 10 μg/ml and the mixture was incubated further for 2 hours. The cells were recovered and washed twice with a staining buffer (PBS containing 1% FBS and 0.1% sodium azide) and suspended in 100 μl of the staining buffer containing 5 μg/ml of Fc Block (rat anti-mouse CD 16/CD32 purified monoclonal antibody, Pharmingen) and incubated on ice for 5 minutes to block the non-specific adsorption of the labeled antibody, and then combined with an equal volume of a Cy-Chrome-labelled rat anti-mouse CD4 monoclonal antibody (Pharmingen) which had been 200-fold diluted with the staining buffer and incubated on ice for 30 minutes. After washing three times with the staining buffer, the cells were suspended in PBS and combined with an equal volume of a fixation solution (4% p-formaldehyde) and incubated at 4° C. overnight, whereby effecting the fixation. The fixed cells thus obtained were washed twice with the staining buffer and suspended in a permeabilazation buffer (PBS containing 1% FBS, 0.5% saponin and 0.1% sodium azide) and incubated on ice for 10 minutes, and then each cell sample was recovered as being divided into two equal portions. Each portion was suspended in 100 μl of the permeabilazation buffer containing 5 μg/ml Fc Block and incubated on ice for 5 minutes to block the non-specific adsorption of the labeled antibody into the cells. One portion was combined with each 100 μl of an FITC-labelled rat anti-mouse IFNγ monoclonal antibody (Pharmingen) and a PE-labeled rat anti-mouse IL-4 monoclonal antibody (Pharmingen) each had been 50-fold diluted with the permeabilazation buffer and incubated on ice for 30 minutes. The other portion, serving as a control representing the non-specific adsorption of the labeled antibody, was combined with each 100 μl of each control antibody at the same concentration, i.e., an FITC-labelled rat IgG1κ purified antibody (Pharmingen) and a PE-labeled rat IgG1κ purified antibody (Pharmingen) to effect the similar staining. […]

[2] = test system: differentiation from Th0 cells to Th1 cells; assay: Effect on induction of differentiation from Th0 cells to Th1 cells (mice immunized with non-viable Mycobacterium tuberculosis, popliteal lymph node, intracellular cytokine FACS); format: in vivo, C57BL/6 mice; settings: for % Th1 / % Th2: C57BL/6N mice immunized with non-viable Mycobacterium tuberculosis, popliteal lymph node 6 days after immunization, n = 3; for effect on the increase in the % Th1: CD4 positive T cells, popliteal lymph node, C57BL/6 mice immunized with non-viable Mycobacterium tuberculosis
Method: In an experiment to induce the differentiation from Th0 cells to Th1 cells, 8 week-old female mice of C57BL/6NCrj purchased from Charles River Japan, Inc. were used.
On the other hand, in an experiment to induce the differentiation from Th0 cells to Th1 cells, a non-viable Mycobacterium tuberculosis H37RA (DIFCO) was suspended in physiological saline, and 125 μg/50 μl was used for immunization as described above. In the group treated with physiological saline, the preparations from 4 animals were combined and subjected to the experiment.
Cells prepared from popliteal lymph nodes of these mice were suspended at 1−2×10^6 cells/ml (1–2 ml) in an RPMI 1640 medium (containing 10% fetal bovine serum—FBS and 50 μM 2-mercaptoethanol) and supplemented with PMA (Phorbol 12-Myristate 13-Acetate) at the final concentration of 50 ng/ml and 250 ng/ml A23187 (Ca ionophore) and then incubated at 37° C. in the presence of 5% CO2. After incubating for 4 hours, Brefeldin A was added at the final concentration of 10 μg/ml and the mixture was incubated further for 2 hours. The cells were recovered and washed twice with a staining buffer (PBS containing 1% FBS and 0.1% sodium azide) and suspended in 100 μl of the staining buffer containing 5 μg/ml of Fc Block (rat anti-mouse CD 16/CD32 purified monoclonal antibody, Pharmingen) and incubated on ice for 5 minutes to block the non-specific adsorption of the labeled antibody, and then combined with an equal volume of a Cy-Chrome-labelled rat anti-mouse CD4 monoclonal antibody (Pharmingen) which had been 200-fold diluted with the staining buffer and incubated on ice for 30 minutes. After washing three times with the staining buffer, the cells were suspended in PBS and combined with an equal volume of a fixation solution (4% p-formaldehyde) and incubated at 4° C. overnight, whereby effecting the fixation. The fixed cells thus obtained were washed twice with the staining buffer and suspended in a permeabilazation buffer (PBS containing 1% FBS, 0.5% saponin and 0.1% sodium azide) and incubated on ice for 10 minutes, and then each cell sample was recovered as being divided into two equal portions. Each portion was suspended in 100 μl of the permeabilazation buffer containing 5 μg/ml Fc Block and incubated on ice for 5 minutes to block the non-specific adsorption of the labeled antibody into the cells. One portion was combined with each 100 μl of an FITC-labelled rat anti-mouse IFNγ monoclonal antibody (Pharmingen) and a PE-labeled rat anti-mouse IL-4 monoclonal antibody (Pharmingen) each had been 50-fold diluted with the permeabilazation buffer and incubated on ice for 30 minutes. The other portion, serving as a control representing the non-specific adsorption of the labeled antibody, was combined with each 100 μl of each control antibody at the same concentration, i.e., an FITC-labelled rat IgG1κ purified antibody (Pharmingen) and a PE-labeled rat IgG1κ purified antibody (Pharmingen) to effect the similar staining. After washing three times with the cell membrane permeation buffer and twice with the staining buffer, the cells were suspended in 500 μl of the staining buffer and transferred through a nylon mesh into a FACS analysis tube.
The significant difference was analyzed by Dunnett multiple comparison test and Student t test.

[3] = 10 mg/kg orally for consecutive 6 days after immunization
[4] = 10 mg/kg orally daily for 6 days
[5] = 40 mg/kg orally for consecutive 6 days after immunization, CD4 positive T cells, popliteal lymph node
[6] = 40 mg/kg orally daily for 6 days
[7] = 2.5 mg/kg orally daily for 6 days

Row | Structure (SMILES) | increase in the % Th2 [1, 3] | increase in the Th2/Th1 ratio [1, 3] | % Th1 [1, 4] | % Th2 [1, 4] | Th2/Th1 [1, 4] | % Th1 ([2]; 10 mg/kg) | % Th2 ([2]; 10 mg/kg) | effect on the increase in the % Th1 [2] | increase in the % Th2 [1, 5] | increase in the Th2/Th1 ratio [1, 5] | % Th1 [1, 6] | % Th2 [1, 6] | Th2/Th1 [1, 6] | % Th1 ([2]; 40 mg/kg) | % Th2 ([2]; 40 mg/kg) | increase in the % Th2 ([1]; 10 mg/kg or higher) | increase in the Th2/Th1 ratio ([1]; 10 mg/kg or higher) | % Th1 [1, 7] | % Th2 [1, 7] | Th2/Th1 [1, 7]
1 | COc1c(C)c(-c2ccc(OCC=C(C)C)c(F)c2)c(C)c(C)c1-c1ccc(NCC=C(C)C)cc1 [Compound I-89] | significantly inhibited | significantly inhibited | 0.23 ± 0.02% | −0.04 ± 0.00 % | −0.19 ± 0.01 | 0.70 ± 0.20% | 0.02 ± 0.06% | no effect | – | – | – | – | – | – | – | – | – | – | – | –
2 | CC(C)=CCNc1ccc(-c2cc(C)c(-c3cnc(OCC=C(C)C)nc3)cc2C)c(F)c1 [Compound I-55] | – | – | – | – | – | – | – | – | significantly inhibited | significantly inhibited | 0.53 ± 0.05% | 0.05 ± 0.02 % | 0.09 ± 0.03 | – | – | – | – | – | – | –
3 | COc1c(C)c(-c2ccc(NCC=C(C)C)cc2)c(C)c(C)c1-c1ccc(OCC(F)(F)F)nc1 [Compound I-90] | – | – | – | – | – | – | – | – | significantly inhibited | significantly inhibited | 0.40 ± 0.02% | 0.08 ± 0.03 % | 0.22 ± 0.09 | – | – | – | – | – | – | –
4 | COc1c(C)c(-c2ccc(NCC=C(C)C)cc2)c(C)c(C)c1-c1ccc(OCC=C(C)C)c(F)c1 [Compound I-80] | – | – | – | – | – | – | – | no effect | significantly inhibited | significantly inhibited | 0.29 ± 0.03% | 0.07 ± 0.03 % | 0.27 ± 0.12 | 0.93 ± 0.11% | 0.02 ± 0.04% | – | – | – | – | –
5 | CC(C)=CCNc1ccc(-c2cc(C)c(-c3ccc(OCC=C(C)C)nc3)cc2C)c(F)c1 [Compound I-6] | – | – | 0.54 ± 0.05% | 0.15 ± 0.01 % | 0.29 ± 0.02 | – | – | no effect | – | – | 0.66 ± 0.02% | 0.03 ± 0.03 % | 0.04 ± 0.05 | 1.03 ± 0.10% | 0.03 ± 0.02% | significantly inhibited | significantly inhibited | 0.70 ± 0.02% | 1.41 ± 0.10% | 2.03 ± 0.20
6 | COc1c(C)c(-c2ccc(NCC=C(C)C)c(F)c2)c(OC)c(C)c1-c1ccc(NCC=C(C)C)nc1 [Compound I-102] | – | – | – | – | – | – | – | no effect | significantly inhibited | significantly inhibited | 0.34 ± 0.09% | −0.01 ± 0.01 % | −0.05 ± 0.06 | 0.82 ± 0.16% | 0.07 ± 0.04% | – | – | – | – | –
7 | CC(C)=CCNc1ccc(-c2cc(C)c(-c3cnc(OCC=C(C)C)nc3)cc2C)c(C)c1 [Compound I-132] | – | – | – | – | – | – | – | – | significantly inhibited | significantly inhibited | 0.46 ± 0.07% | 0.05 ± 0.02 % | 0.12 ± 0.04 | – | – | – | – | – | – | –
8 | COc1c(C)c(-c2ccc(OCC(C)C)c(O)c2)c(C)c(C)c1-c1ccc(NCC=C(C)C)cc1 [Compound I-133] | – | – | – | – | – | – | – | – | significantly inhibited | significantly inhibited | 0.45 ± 0.03% | 0.20 ± 0.05 % | 0.45 ± 0.09 | – | – | – | – | – | – | –
